Here are results for four compounds from ChEMBL document CHEMBL3046608, “Efficient isolation of catechins from green tea and characterization of interaction property of catechins with proteins by HPLCUV/DAD combined with ultrafiltration” (Med Chem Res, 2012).

In series [1] the target is T1, Albumin (Homo sapiens, UniProt P02768). Kind of series: Binding affinity to 0.06 mM Homo sapiens (human) serum albumin by ultrafiltration-HPLC-UV/DAD method. In kind it is ADME.
Series [2] in a line: (§1) Total plasma protein binding in Rattus norvegicus Wistar (rat) by ultrafiltration-HPLC-UV/DAD method. To be noted: Wistar, read-out: PPB (converted). In kind it is ADME, cell-free.
Series [3] in a line: Diluted plasma protein binding in Homo sapiens (human) by ultrafiltration-HPLC-UV/DAD method. In kind it is ADME, cell-free. To be noted: read-out: PPB (converted).
Series [4] in a line: (§2) Total plasma protein binding in Homo sapiens (human) by ultrafiltration-HPLC-UV/DAD method. Format: ADME, cell-free. To be noted: read-out: PPB (converted).
The species entered for series [5] is Rattus norvegicus. Kind of series: Binding affinity to Rattus norvegicus Wistar (rat) pancreatic membrane protein by ultrafiltration-HPLC-UV/DAD method.
Series [6] can be described thus: Diluted plasma protein binding in Rattus norvegicus Wistar (rat) by ultrafiltration-HPLC-UV/DAD method. In kind it is ADME, cell-free. Conditions: read-out: PPB (converted).
Series [7] has as its target T1, Albumin. Put plainly: Binding affinity to 0.6 mM Homo sapiens (human) serum albumin by ultrafiltration-HPLC-UV/DAD method. Format: ADME.
Series [8] has as its system Plasma. The description is as §1. In kind it is ADME, cell-free.
Series [9] concerns Plasma. The description is as §2. Format: ADME, cell-free.
A further series has as its system Lipid bilayer. Put plainly: Binding affinity to Rattus norvegicus Wistar (rat) pancreatic phospholipid membrane by ultrafiltration-HPLC-UV/DAD method.
The species entered for series [10] is Rattus norvegicus. Kind of series: Selectivity ratio of binding affinity to Rattus norvegicus Wistar (rat) pancreatic membrane protein to Rattus norvegicus Wistar (rat) pancreatic phospholipid membrane.

T1 sequence (P02768 whole entry): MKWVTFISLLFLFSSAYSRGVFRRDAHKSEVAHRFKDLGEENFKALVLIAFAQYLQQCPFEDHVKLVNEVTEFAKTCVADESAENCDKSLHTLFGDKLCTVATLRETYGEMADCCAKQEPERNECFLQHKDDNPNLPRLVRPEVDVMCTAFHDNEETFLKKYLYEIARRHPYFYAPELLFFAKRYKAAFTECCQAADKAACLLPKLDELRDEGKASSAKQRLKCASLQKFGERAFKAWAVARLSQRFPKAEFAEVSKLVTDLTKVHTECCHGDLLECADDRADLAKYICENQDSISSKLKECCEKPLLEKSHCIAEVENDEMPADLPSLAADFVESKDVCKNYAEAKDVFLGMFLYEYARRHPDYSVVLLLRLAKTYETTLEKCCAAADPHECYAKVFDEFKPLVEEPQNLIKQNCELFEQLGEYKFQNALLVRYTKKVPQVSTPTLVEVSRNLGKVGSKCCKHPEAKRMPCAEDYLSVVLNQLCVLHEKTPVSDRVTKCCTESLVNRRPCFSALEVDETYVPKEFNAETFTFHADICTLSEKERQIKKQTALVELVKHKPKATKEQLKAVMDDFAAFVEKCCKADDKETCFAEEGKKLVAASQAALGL

Take `Oc1cc(O)c2c(c1)O[C@@H](c1ccc(O)c(O)c1)[C@H](O)C2` [(-)-CATECHIN]: the values for the Activity on Albumin [1], in the series listed under Rattus norvegicus [5] and on Albumin [7] were 30.9%, 36.9% and 65.6%, respectively. Besides, the fraction unbound in [2] was 0.15; in [3] it was 0.55; in [4] it was 0.15; in series [6], 0.55.
Regarding `Cn1c(=O)c2c(ncn2C)n(C)c1=O` [CAFFEINE], the values for the Activity at Albumin [1], with Lipid bilayer and at Albumin [7] were 58.4%, 62.8% and 72.7%, respectively. The PPB in the series on Plasma [8] and in the series on Plasma [9] was 80% in each case.
For the compound `O=C(O[C@@H]1Cc2c(O)cc(O)cc2O[C@@H]1c1ccc(O)c(O)c1)c1cc(O)c(O)c(O)c1` [EPICATECHIN GALLATE], the Ratio in the series filed under Rattus norvegicus [10] worked out at 2. The Activity at Albumin [1] stood at 69.5%; in the series filed under Rattus norvegicus [5], 39.2%; with Lipid bilayer, 91.5%; at Albumin [7], 85.8%. The fraction unbound in series [2] and in series [4] was 0.15 throughout.
With `O=C(O[C@@H]1Cc2c(O)cc(O)cc2O[C@@H]1c1cc(O)c(O)c(O)c1)c1cc(O)c(O)c(O)c1` [EPIGALOCATECHIN GALLATE], the Activity on Albumin [1] turned out to be 68.7%; in the series listed under Rattus norvegicus [5] it was 37.4%; with Lipid bilayer, 78.8%; at Albumin [7] it was 85.2%. Further, the fraction unbound in [2] and in series [4] was 0.15 each time.
